Measured values reported in patent US20150374709A1, “TETRA-SUBSTITUTED NDGA DERIVATIVES VIA ETHER BONDS AND CARBAMATE BONDS AND THEIR SYNTHESIS AND PHARMACEUTICAL USE” (ERIMOS PHARMACEUTICALS LLC, priority 2006, published 2015).

Experiments:
Prostate cell lines = experiment: NCI DTP human tumor cell line screen, prostate panel; format: cell-based; settings: Prostate (2 cell lines)
Description: (§1) The United States National Cancer Institute (NCI) provides a developmental therapeutics program (DTP) (http://dtp.nci.nih.gov/branches/btb/ivelsp.html) to screen submitted substances in support of cancer drug discovery. The In Vitro Cell Line Screening Project (IVCLSP) is a dedicated service providing direct support to the DTP anticancer drug discovery program and is designed to screen up to 3,000 compounds per year for potential anticancer activity. The operation of this screen utilizes 60 different human tumor cell lines, representing leukemia, melanoma and cancers of the lung, colon, brain, ovary, breast, prostate, and kidney. The aim is to prioritize for farther evaluation, synthetic compounds or natural product samples showing selective growth inhibition or cell killing of particular tumor cell lines. This screen is unique in that the complexity of a 60 cell line dose response produced by a given compound results in a biological response pattern which can be utilized in pattern recognition algorithms (COMPARE program. See: http://dtp.nci.nih.gov/docs/compare/compare.html). Using these algorithms, it is possible to assign a putative mechanism of action to a test compound, or to determine that the response pattern is unique and not similar to that of any of the standard prototype compounds included in the NCI database. […]

[1] = Caco-2 monolayer bidirectional permeability; format: in vitro ADME, human; settings: human
Method: (§2) Permeability studies were conducted by an outside contractor on behalf of the assignee of the present invention and application to determine the permeability of Compound A through Caco-2 monolayers. An important factor of oral bioavailability is the ability of e compound to be absorbed in the small intestine. Measurement of drug apparent permeability (Papp) through cell monolayers is well correlated with human intestinal absorption, and several mammalian cell lines, including Caco-2, LLC-PK1 and MDCK, are appropriate for this measurement (Artursson, P. et al., Correlation between oral drug absorption in humans and apparent drug permeability coefficients in human intestinal epithelial (Caco-2) cells. Biochem Biophys Res Comm 175:880-885 (1991); Stewart. B. H., et al., Comparison of intestinal permeabilities in multiple in vitro and in situ models: relationship to absorption in humans. Pharm Res 12:693 (1995)). P-Glycoprotein (P-gp, encoded by MDR1) is a member of the ABC transporter super family and is expressed in the human intestine, liver and other tissues. Intestinal expression of P-gp may affect the oral bioavailability of drug molecules that are substrates for this transporter. Interaction with P-gp can be studied using direct assays of drug transport in polarized cell systems such as Caco-2 cell monolayers, and human P-gp cDNA-expressing LLC-PK1 and MDCK cell monolayers. Caco-2 cells (human adenocarcinoma colonic cell line Caco-2, ATCC Cat. No. […] The cells were cultured for 21-25 days with media replacement every 3-4 days. Monolayer integrity was evaluated by pre-experimental trans-epithelial electrical resistance (TEER) measurements and post-experimental lucifer yellow A to B flux determinations. […] Receiver solution was prepared by adding 1% DMSO to transport buffer. The test solution was of Compound A in DMSO in transport buffer at a final DMSO concentration of 1%. […] The donor and receiver solutions were added to the apical or basolateral chambers of the monolayers (depending on the direction of transport to be measured). The monolayers were incubated on an orbital shaker (50 rpm) at 37° C., with ambient humidity and CO2. After 90 minutes, samples from the donor and receiver chambers were removed for analysis. […] Duplicate monolayers were used for each incubation. Samples were analyzed by LC/MS/MS using peak area ratios to an internal standard. Test article concentrations were calculated based on the peak area ratios obtained for appropriate dilutions of the donor solution containing the test article at the nominal concentration in transport buffer. Samples were diluted as appropriate to ensure that the response was within the linear range of the mass spec detector. Comparator and control samples were analyzed by liquid scintillation counting. Lucifer yellow concentrations were determined using a fluorescence plate reader.

Caco-2 cell monolayers = experiment: Caco-2 monolayer bidirectional permeability; format: in vitro ADME, human; settings: human, Caco-2, 90 min, 1 μM, pH 7.4
Method: as §2

Renal Cancer cell lines = experiment: NCI DTP human tumor cell line screen, renal cancer panel; format: cell-based; settings: Renal Cancer (6 cell lines)
Description: as §1

Breast Cancer cell lines = experiment: NCI DTP human tumor cell line screen, breast cancer panel; format: cell-based; settings: Breast Cancer (6 cell lines)
Description: as §1

For C[C@H](Cc1ccc(OCCCN2CCCCC2)c(OCCCN2CCCCC2)c1)[C@@H](C)Cc1ccc(OCCCN2CCCCC2)c(OCCCN2CCCCC2)c1 [Compound A, 1,4-bis{3,4-bis[3-(piperidin-1-yl)propoxy]phenyl}-2,3-dimethyl-(2R,3S)-butane], the “Mean Growth Percent at 10 μM” value (Prostate cell lines) was −95.47%, the Papp A→B at 90 min, 1 μM ([1]; Caco-2, pH 7.4, BCS permeability class) was 0.514 to 14.2 ×10⁻⁶ cm/s and the Papp A→B at 90 min, 1 μM ([1]; Caco-2, pH 7.4, Papp A to B) was 9.75 ×10⁻⁶ cm/s. For the same compound, the Papp B→A at 90 min, 1 μM ([1]; Caco-2, pH 7.4, Papp B to A) was 1.74 ×10⁻⁶ cm/s, the efflux ratio at 90 min, 1 μM ([1]; Caco-2, pH 7.4, Polarization Ratio [B-A/A-B]) was 0.1 to 0.2 and the “Papp A to B” value (Caco-2 cell monolayers) was 9.61e-06 cm/s. For the same compound, the “Papp B to A” value (Caco-2 cell monolayers) was 1.72e-06 cm/s, the “Polarization Ratio [B-A/A-B]” value (Caco-2 cell monolayers) was 0.18 and the “Mean Growth Percent at 10 μM” value (Renal Cancer cell lines) was −95.54%. The “Mean Growth Percent at 10 μM” value (Breast Cancer cell lines) was −67.95%.
